Measurements from ChEMBL document CHEMBL1139168, “Pyrrolidino-tetrahydroisoquinolines as potent dual H3 antagonist and serotonin transporter inhibitors” (Bioorg Med Chem Lett, 2007).

Assays:
[1] = target: Sodium-dependent serotonin transporter (Rattus norvegicus, UniProt P31652); test: Displacement of [3H]citalopram from rat brain SERT
[2] = target: Histamine H3 receptor (Homo sapiens, UniProt Q9Y5N1); test: Binding affinity at human histamine H3 receptor expressed in SK-N-MC cells
[3] = Cmax in mouse brain at 30 mg/kg, ip
[4] = test system: Rattus norvegicus; test: Increase in extracellular serotonin level in rat brain frontal cortex at 1 mg/kg, ip after 8 hrs relative to basal level; type: functional; conditions: route intraperitoneal
[5] = test system: Rattus norvegicus; test: Increase in extracellular dopamine level in rat brain frontal cortex at 1 mg/kg, ip after 24 hrs relative to basal level; type: functional; conditions: route intraperitoneal
[6] = test system: Mus musculus; test: Inhibition of SERT in 5-hydroxytryptophan potentiated head twitch mouse model assessed as increase in head twitch response at 10 mg/kg, ip relative to control; type: functional; parameters: scale not given: the % may be the effect or the level left; conditions: route intraperitoneal
[7] = test system: Mus musculus; test: Inhibition of SERT in 5-hydroxytryptophan potentiated head twitch mouse model assessed as increase in head twitch response at 3 mg/kg, ip relative to control; type: functional; parameters: scale not given: the % may be the effect or the level left; conditions: route intraperitoneal
[8] = test system: Mus musculus; test: Inhibition of SERT in ip dosed 5-hydroxytryptophan potentiated head twitch mouse model assessed as increase in head twitches after 24 hrs; type: functional, organism-based
[9] = Half life in rat at 1 mg/kg, iv or 10 mg/kg, po; type: ADME, organism-based; conditions: in vivo
[10] = test system: Rattus norvegicus; test: Increase in extracellular serotonin level in rat brain frontal cortex at 1 mg/kg, ip after 24 hrs relative to basal level; type: functional; conditions: route intraperitoneal
[11] = Bioavailability in rat 10 mg/kg, po; type: ADME, organism-based; conditions: in vivo
[12] = test system: Rattus norvegicus; test: Increase in extracellular dopamine level in rat brain frontal cortex at 1 mg/kg, ip after 8 hrs relative to basal level; type: functional; conditions: route intraperitoneal

Sequence of Histamine H3 receptor (Q9Y5N1 whole entry): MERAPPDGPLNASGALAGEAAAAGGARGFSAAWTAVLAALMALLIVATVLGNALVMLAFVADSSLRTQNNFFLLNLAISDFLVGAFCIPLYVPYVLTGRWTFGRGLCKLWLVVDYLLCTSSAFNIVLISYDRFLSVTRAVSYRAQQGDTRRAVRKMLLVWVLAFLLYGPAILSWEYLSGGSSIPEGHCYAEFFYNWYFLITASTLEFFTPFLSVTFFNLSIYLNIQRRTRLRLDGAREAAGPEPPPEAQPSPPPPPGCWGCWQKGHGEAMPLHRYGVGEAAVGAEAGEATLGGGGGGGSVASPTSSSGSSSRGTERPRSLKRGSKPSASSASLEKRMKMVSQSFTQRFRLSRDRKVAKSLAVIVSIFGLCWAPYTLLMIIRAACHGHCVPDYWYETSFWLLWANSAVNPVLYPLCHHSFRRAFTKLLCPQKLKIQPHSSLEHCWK
Sequence of Sodium-dependent serotonin transporter (P31652 whole entry): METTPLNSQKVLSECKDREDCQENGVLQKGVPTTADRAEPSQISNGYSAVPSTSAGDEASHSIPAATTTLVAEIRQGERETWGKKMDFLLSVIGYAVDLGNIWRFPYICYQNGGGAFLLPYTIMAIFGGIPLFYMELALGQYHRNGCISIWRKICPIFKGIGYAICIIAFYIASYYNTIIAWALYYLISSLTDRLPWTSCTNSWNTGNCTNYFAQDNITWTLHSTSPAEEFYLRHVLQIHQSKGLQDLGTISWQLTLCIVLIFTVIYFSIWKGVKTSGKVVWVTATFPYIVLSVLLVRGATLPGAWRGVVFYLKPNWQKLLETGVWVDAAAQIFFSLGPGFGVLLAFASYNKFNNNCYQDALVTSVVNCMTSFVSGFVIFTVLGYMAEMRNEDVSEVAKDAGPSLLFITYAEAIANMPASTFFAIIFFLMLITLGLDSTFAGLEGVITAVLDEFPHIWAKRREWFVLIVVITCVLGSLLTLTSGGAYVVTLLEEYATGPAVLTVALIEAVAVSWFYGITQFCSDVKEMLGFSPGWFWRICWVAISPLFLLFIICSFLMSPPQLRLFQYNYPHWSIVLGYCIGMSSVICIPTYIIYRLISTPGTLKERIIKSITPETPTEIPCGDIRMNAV

| SMILES | Ki [1] | Ki [2] | other results |
| --- | --- | --- | --- |
| Clc1cccc(C2CN3CCCC3c3cc(OCCCN4CCCCC4)ccc32)c1 (racemic) | 4 nM | 1.2 nM | – |
| COc1ccc(C2CN3CCCC3c3cc(OCCCN4CCCCC4)ccc32)cc1 (racemic) | – | – | Cmax [3]: 1280 nM; Activity [4]: 500%; Activity [5]: 300%; Activity [6]: 661%; Activity [7]: 384%; Activity [8]: Dose-dependent effect; half-life [9]: 15.7 h; Activity [10]: 500%; bioavailability [11]: 16%; Activity [12]: 300% |
| COc1ccccc1C1CN2CCCC2c2cc(OCCCN3CCCCC3)ccc21 (racemic) | 14 nM | 1.3 nM | – |
| FC(F)(F)Oc1ccc(C2CN3CCCC3c3cc(OCCCN4CCCCC4)ccc32)cc1 (racemic) | 11 nM | 4 nM | – |
| Oc1ccc(C2CN3CCCC3c3cc(OCCCN4CCCCC4)ccc32)cc1 (racemic) | 9.3 nM | 1.7 nM | – |
| FC(F)(F)c1ccc(C2CN3CCCC3c3cc(OCCCN4CCCCC4)ccc32)cc1 (racemic) | 26.7 nM | 4.7 nM | – |
| FC(F)(F)c1cccc(C2CN3CCCC3c3cc(OCCCN4CCCCC4)ccc32)c1 (racemic) | 21.7 nM | 2 nM | – |
| N#Cc1ccc(C2CN3CCCC3c3cc(OCCCN4CCCCC4)ccc32)cc1 (racemic) | 24.7 nM | 1.2 nM | – |
| Oc1ccccc1C1CN2CCCC2c2cc(OCCCN3CCCCC3)ccc21 (racemic) | 20.7 nM | 3.7 nM | – |
| Clc1ccccc1C1CN2CCCC2c2cc(OCCCN3CCCCC3)ccc21 (racemic) | 8.7 nM | 2.3 nM | – |

More lines, main results first:

| Ki [1] | Ki [2] | SMILES | other results |
| --- | --- | --- | --- |
| 5.3 nM | 1.3 nM | O=[N+]([O-])c1ccc(C2CN3CCCC3c3cc(OCCCN4CCCCC4)ccc32)cc1 (racemic) | – |
| 3.7 nM | 1.7 nM | Fc1ccc(C2CN3CCCC3c3cc(OCCCN4CCCCC4)ccc32)cc1 (racemic) | – |
| 1.3 nM | 0.7 nM | Oc1cccc(C2CN3CCCC3c3cc(OCCCN4CCCCC4)ccc32)c1 (racemic) | – |
| 7 nM | 4 nM | C#Cc1ccc(C2CN3CCCC3c3cc(OCCCN4CCCCC4)ccc32)cc1 (racemic) | – |
| 6.3 nM | 2.2 nM | Clc1ccc(C2CN3CCCC3c3cc(OCCCN4CCCCC4)ccc32)cc1 (racemic) | – |
| 8.7 nM | 2 nM | C#Cc1cccc(C2CN3CCCC3c3cc(OCCCN4CCCCC4)ccc32)c1 (racemic) | – |
| 3.3 nM | 2.5 nM | CSc1ccc(C2CN3CCCC3c3cc(OCCCN4CCCCC4)ccc32)cc1 (racemic) | – |
| 3.3 nM | 1.6 nM | CN(C)c1ccc(C2CN3CCCC3c3cc(OCCCN4CCCCC4)ccc32)cc1 (racemic) | – |
| 2 nM | 0.9 nM | c1ccc(C2CN3CCCC3c3cc(OCCCN4CCCCC4)ccc32)cc1 (racemic) | – |
| 3 nM | 2 nM | Cc1ccc(C2CN3CCCC3c3cc(OCCCN4CCCCC4)ccc32)cc1 (racemic) | – |
| 4.7 nM | 1.7 nM | COc1cccc(C2CN3CCCC3c3cc(OCCCN4CCCCC4)ccc32)c1 (racemic) | – |
